Measured values taken from ChEMBL document CHEMBL4311960, “Two optimized antimicrobial peptides with therapeutic potential for clinical antibiotic-resistant Staphylococcus aureus” (Eur J Med Chem, 2019).

How the values were obtained:
Staphylococcus aureus [1] = assay: Antibacterial activity against Staphylococcus aureus ATCC 25923 assessed as reduction in bacterial growth incubated for 24 hrs by serial dilution method; assay type: functional; details: ATCC 25923, 24 h
Streptococcus mutans = assay: Antibacterial activity against Streptococcus mutans UA159 assessed as reduction in bacterial growth incubated for 24 hrs by serial dilution method; assay type: functional; details: UA159, 24 h
Staphylococcus aureus [2] = assay: Antibacterial activity against methicillin-resistant Staphylococcus aureus ATCC 18466 assessed as reduction in bacterial growth incubated for 24 hrs by serial dilution method; assay type: functional; details: ATCC 18466, 24 h, read-out: MIC
Candida albicans = assay: Antifungal activity against Candida albicans ATCC 5314 assessed as reduction in fungal growth incubated for 24 hrs by serial dilution method; assay type: functional; details: ATCC 5314, 24 h, read-out: MIC
Streptococcus sanguinis = assay: Antibacterial activity against Streptococcus sanguinis ATCC 10556 assessed as reduction in bacterial growth incubated for 24 hrs by serial dilution method; assay type: functional; details: ATCC 10556, 24 h
Erythrocyte = assay: Hemolytic activity in mouse Erythrocyte assessed as HC10 incubated for 1 hr; assay type: ADME, cell-based
[3] = Hemolytic activity in mouse Erythrocyte assessed as HC50 incubated for 1 hr; assay type: ADME, cell-based; details: mouse erythrocytes
[4] = Hemolytic activity in mouse Erythrocyte at 640 ug/ml incubated for 1 hr relative to control; assay type: ADME, cell-based; details: mouse erythrocytes, read-out: %max
[5] = Cytotoxicity against human HEK293T cells assessed as cell viability at 640 ug/ml incubated for 48 hrs by MTT assay relative to control; assay type: cell-based, HEK-293T; details: read-out: Activity
[6] = Cytotoxicity against human HEK293T cells assessed as cell viability at 5 to 640 ug/ml incubated for 48 hrs by MTT assay relative to control; assay type: cell-based, HEK-293T; details: read-out: Activity

Substance: H-WVRKVRRWWKKVKKVVKK-NH2
- MIC (Staphylococcus aureus [1]; read-out: MIC): < 64 µg/mL
- MIC (Streptococcus mutans; read-out: MIC): < 64 µg/mL
- MIC (Staphylococcus aureus [2]): < 64 µg/mL
- MIC (Candida albicans): < 64 µg/mL
- MIC (Streptococcus sanguinis; read-out: MIC): < 64 µg/mL
- HC10 (Erythrocyte): 80.04 µg/mL
- HC50 at 1 h [3]: > 640 µg/mL
- hemolysis at 1 h, 640 ug/ml [4]: 25.5%
- viability at 48 h, 640 ug/ml [5]: 65.7%

Substance: H-WYERLINRKFKWLKGRLSKK-NH2
- MIC (Staphylococcus aureus [1]): > 64 µg/mL
- MIC (Streptococcus mutans): > 64 µg/mL
- MIC (Staphylococcus aureus [2]): < 64 µg/mL
- MIC (Candida albicans): < 64 µg/mL
- MIC (Streptococcus sanguinis; read-out: MIC): < 64 µg/mL
- HC10 (Erythrocyte): 178.82 µg/mL
- HC50 at 1 h [3]: > 640 µg/mL
- hemolysis at 1 h, 640 ug/ml [4]: 17.3%
- viability at 48 h [6]: 70 to 80%

Substance: H-YEIKINRHFKTLKKNLKK-NH2
- MIC (Staphylococcus aureus [1]; read-out: MIC): < 64 µg/mL
- MIC (Streptococcus mutans): > 64 µg/mL
- MIC (Staphylococcus aureus [2]): < 64 µg/mL
- MIC (Candida albicans): < 64 µg/mL
- MIC (Streptococcus sanguinis): > 64 µg/mL
- HC10 (Erythrocyte): > 640 µg/mL
- HC50 at 1 h [3]: > 640 µg/mL
- hemolysis at 1 h, 640 ug/ml [4]: 7.94%
- viability at 48 h [6]: 70 to 80%

Substance: H-YFRTIRRFFKKLFKTLKK-NH2
- MIC (Staphylococcus aureus [1]; read-out: MIC): 64 µg/mL
- MIC (Streptococcus mutans; read-out: MIC): < 64 µg/mL
- MIC (Staphylococcus aureus [2]): 64 µg/mL
- MIC (Candida albicans): 64 µg/mL
- MIC (Streptococcus sanguinis; read-out: MIC): < 64 µg/mL
- HC10 (Erythrocyte): 640 µg/mL
- HC50 at 1 h [3]: > 640 µg/mL
- hemolysis at 1 h, 640 ug/ml [4]: 10.3%
- viability at 48 h [6]: 70 to 80%

Substance: H-YIRKINRHFKTLKKNLKK-NH2
- MIC (Staphylococcus aureus [1]; read-out: MIC): < 64 µg/mL
- MIC (Streptococcus mutans): > 64 µg/mL
- MIC (Staphylococcus aureus [2]): < 64 µg/mL
- MIC (Candida albicans): < 64 µg/mL
- MIC (Streptococcus sanguinis; read-out: MIC): < 64 µg/mL
- HC10 (Erythrocyte): > 640 µg/mL
- HC50 at 1 h [3]: > 640 µg/mL
- hemolysis at 1 h, 640 ug/ml [4]: 8.07%
- viability at 48 h [6]: 70 to 80%

Substance: H-YIRKIRRFFKKLNKNLKK-NH2
- MIC (Staphylococcus aureus [1]): > 64 µg/mL
- MIC (Streptococcus mutans; read-out: MIC): < 64 µg/mL
- MIC (Staphylococcus aureus [2]): < 64 µg/mL
- MIC (Candida albicans): < 64 µg/mL
- MIC (Streptococcus sanguinis): > 64 µg/mL
- HC10 (Erythrocyte): > 640 µg/mL
- HC50 at 1 h [3]: > 640 µg/mL
- hemolysis at 1 h, 640 ug/ml [4]: 9.86%
- viability at 48 h [6]: 70 to 80%

Substance: H-YIRKIRRFFKKRFKFRKK-NH2
- MIC (Staphylococcus aureus [1]; read-out: MIC): 64 µg/mL
- MIC (Streptococcus mutans; read-out: MIC): 16 µg/mL
- MIC (Staphylococcus aureus [2]): 32 µg/mL
- MIC (Candida albicans): 32 µg/mL
- MIC (Streptococcus sanguinis; read-out: MIC): 64 µg/mL
- HC10 (Erythrocyte): > 640 µg/mL
- HC50 at 1 h [3]: > 640 µg/mL
- hemolysis at 1 h, 640 ug/ml [4]: 8.21%
- viability at 48 h [6]: 70 to 80%

Substance: H-YIRKIRRFFKTLNKNLKK-NH2
- MIC (Staphylococcus aureus [1]): > 64 µg/mL
- MIC (Streptococcus mutans; read-out: MIC): 32 µg/mL
- MIC (Staphylococcus aureus [2]): < 64 µg/mL
- MIC (Candida albicans): < 64 µg/mL
- MIC (Streptococcus sanguinis; read-out: MIC): < 64 µg/mL
- HC10 (Erythrocyte): > 640 µg/mL
- HC50 at 1 h [3]: > 640 µg/mL
- hemolysis at 1 h, 640 ug/ml [4]: 7.17%
- viability at 48 h [6]: 70 to 80%
